The values that follow come from patent publication US20240343722A1 (VIFOR (INTERNATIONAL) AG, priority 2021, published 2024).

The target of the experiment is T1, ferroportin (Fpn) (Mus musculus, UniProt Q9JHI9).
T1 construct: endogenous in cells; host or cells: J774 mouse macrophage cell line, induced with Fe(III)NTA
T1 sequence (Q9JHI9 1-570): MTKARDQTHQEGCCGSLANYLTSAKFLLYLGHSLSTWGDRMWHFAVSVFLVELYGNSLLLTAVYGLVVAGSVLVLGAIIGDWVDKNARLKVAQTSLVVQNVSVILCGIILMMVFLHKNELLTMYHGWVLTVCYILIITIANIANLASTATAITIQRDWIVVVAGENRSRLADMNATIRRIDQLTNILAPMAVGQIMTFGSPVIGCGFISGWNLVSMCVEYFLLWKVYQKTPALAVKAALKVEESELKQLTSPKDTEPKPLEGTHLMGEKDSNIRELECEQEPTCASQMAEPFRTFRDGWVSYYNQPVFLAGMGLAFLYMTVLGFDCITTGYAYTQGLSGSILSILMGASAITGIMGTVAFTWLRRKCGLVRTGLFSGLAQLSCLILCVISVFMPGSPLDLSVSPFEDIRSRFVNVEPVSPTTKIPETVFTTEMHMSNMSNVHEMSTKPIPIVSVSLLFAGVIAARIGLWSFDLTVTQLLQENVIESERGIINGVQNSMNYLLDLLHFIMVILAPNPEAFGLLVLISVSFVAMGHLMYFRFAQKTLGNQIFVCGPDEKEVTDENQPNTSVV
In words: Hepcidin Internalization Assay (J774). Format: cell-based. Conditions: Average (AVE) IC50 of multiple measurements; inhibition of TMR-hepcidin (25 nM) internalization into J774 cells. The source says:
This cellular assay allows quantification of the binding of hepcidin to ferroportin (Fpn) through microscopic detection of internalization of a fluorescently labeled hepcidin into J774 cells. […] Binding of hepcidin to Fpn triggers internalization and degradation of both hepcidin and Fpn. […] Therefore, microscopic detection of cell-associated TMR fluorescence is a measure of hepcidin binding to Fpn and internalization of hepcidin and Fpn. If TMR-hepcidin is prevented from binding to Fpn, cellular TMR fluorescence remains low (Durrenberger et al, 2013). The effect of small molecular weight Fpn inhibitor compounds in this assay was evaluated in vitro as described below. […] After removal of the paraformaldehyde solution, cells were washed 3 times with PBS leaving 100 μl per well and the plates were sealed with foil plate seal. TMR (530-550 nm excitation/575-625 nm emission/400 ms exposure time) and Hoechst 33342 (360-370 nm excitation/420-460 nm emission /10 ms exposure time) fluorescence images were acquired using a […] imager (Olympus) with a 20× high NA objective. […] The acquired image data was analysed with the […] analysis software. […] IC50 values were calculated with the Sum(Mean) raw data using “log(inhibitor) vs. response” curve fitting of Prism 5 software (GraphPad Software Inc., version 5.02). For each data set the fit of the “log(inhibitor) vs. response (three parameters)” model was compared to the fit of the “log(inhibitor) vs. response - Variable slope (four parameters)” model and the IC50 data of the preferred model was used.
Consider `COCCn1c(CCNCCc2nc(C(=O)NCc3ncccc3OC)co2)nc2cc3c(cc21)OCCO3` [Example 67, 2-(2-((2-(1-(2-methoxyethyl)-6,7-dihydro-1H-[1,4]dioxino[2′,3′:4,5]benzo[1,2-d]imidazol-2-yl)ethyl)amino)ethyl)-N-((3-methoxypyridin-2-yl)methyl)oxazole-4-carboxamide], for which the IC50 – broadly, the point on the concentration scale where inhibition reaches its midpoint – is 4.3 nM.

On to `COc1cccnc1CNC(=O)c1coc(CCNCCc2nc3cc4c(cc3n2CC(F)F)OCCO4)n1` [Example 68, 2-(2-((2-(1-(2,2-difluoroethyl)-6,7-dihydro-1 H-[1,4]dioxino[2′,3′:4,5]benzo[1,2-d]imidazol-2-yl)ethyl)amino)ethyl)-N-((3-methoxypyridin-2-yl)methyl)oxazole-4-carboxamide], for which the midpoint of inhibition, the IC50, lay at 7 nM.

The molecule `COCCn1c(CCNCCc2nc(C(=O)NCc3ncccc3F)co2)nc2cc3c(cc21)OCO3` [Example 69, N-((3-fluoropyridin-2-yl)methyl)-2-(2-((2-(5-(2-methoxyethyl)-5H-[1,3]dioxolo[4′,5′:4,5]benzo[1,2-d]imidazol-6-yl)ethyl)amino)ethyl)oxazole-4-carboxamide] came in with a half-inhibitory concentration (IC50) of 3 nM.

As to `COCCn1c(CCNCCc2nc(C(=O)NCc3ncccc3OC)co2)nc2cc3c(cc21)OCO3` [Example 70, 2-(2-((2-(5-(2-methoxyethyl)-5H-[1,3]dioxolo[4′,5′:4,5]benzo[1,2-d]imidazol-6-yl)ethyl)amino)ethyl)-N-((3-methoxypyridin-2-yl)methyl)oxazole-4-carboxamide], the IC50 is 3.9 nM.

Molecule `O=C(NCc1ncccc1F)c1coc(CCNCCc2nc3cc4c(cc3n2CC(F)F)OCCO4)n1` [Example 71, 2-(2-((2-(1-(2,2-difluoroethyl)-6,7-dihydro-1 H-[1,4]dioxino[2′,3′:4,5]benzo[1,2-d]imidazol-2-yl)ethyl)amino)ethyl)-N-((3-fluoropyridin-2-yl)methyl)oxazole-4-carboxamide] showed an IC50 of 7 nM.

`COc1cccc(-n2c(CCNCCc3nc(C(=O)NCc4ncccc4F)co3)nc3cc(OC)c(OC)cc32)c1` [Example 72, 2-(2-((2-(5,6-dimethoxy-1-(3-methoxyphenyl)-1H-benzo[d]imidazol-2-yl)ethyl)amino)ethyl)-N-((3-fluoropyridin-2-yl)methyl)oxazole-4-carboxamide] displayed an IC50 of 35 nM.

In the case of `CC(C)OCCn1c(CCNCCc2nc(C(=O)NCc3ncccc3F)co2)nc2cc3c(cc21)OCCO3` [Example 73, N-((3-fluoropyridin-2-yl)methyl)-2-(2-((2-(1-(2-isopropoxyethyl)-6,7-dihydro-1 H-[1,4]dioxino[2′,3′:4,5]benzo[1,2-d]imidazol-2-yl)ethyl)amino)ethyl)oxazole-4-carboxamide], inhibition was half-maximal at 2.6 nM (IC50). Against the preceding molecule, the IC50 is about 13-fold lower.

`O=C(NCc1ncccc1F)c1coc(CCNCCc2nc3cc4c(cc3n2CCN2CCCCC2)OCCO4)n1` [Example 74, N-((3-fluoropyridin-2-yl)methyl)-2-(2-((2-(1-(2-(piperidin-1-yl)ethyl)-6,7-dihydro-1H-[1,4]dioxino[2′,3′:4,5]benzo[1,2-d]imidazol-2-yl)ethyl)amino)ethyl)oxazole-4-carboxamide]: the IC50 was determined as 4.9 nM.

`COc1cccc(-n2c(CCNCCc3nc(C(=O)NCc4ncccc4F)co3)nc3cc4c(cc32)OCO4)c1` [Example 75, N-((3-fluoropyridin-2-yl)methyl)-2-(2-((2-(5-(3-methoxyphenyl)-5H-[1,3]dioxolo[4′,5′:4,5]benzo[1,2-d]imidazol-6-yl)ethyl)amino)ethyl)oxazole-4-carboxamide] had a concentration for half-maximal inhibition (IC50) of 1.3 nM.

Molecule `COc1cccnc1CNC(=O)c1coc(CCNCCc2nc3cc4c(cc3n2CCN(C)C)OCCO4)n1` [Example 76, 2-(2-((2-(1-(2-(dimethylamino)ethyl)-6,7-dihydro-1 H-[1,4]dioxino[2′,3′:4,5]benzo[1,2-d]imidazol-2-yl)ethyl)amino)ethyl)-N-((3-methoxypyridin-2-yl)methyl)oxazole-4-carboxamide] returned an IC50 of 13 nM.
